“Also recorded” adds a separate entry of the source. Where two headings read alike, the source gives them in different places.
Tests used:
[1] = biological target: T1, cannabinoidergic CB1 receptors (Rattus norvegicus, UniProt P20272); test: Radioreceptorial binding, [3H]-CP-55,940 competition, rat brain membranes
T1 construct: the brain in toto (cerebellum excluded) and the spleen were rapidly dissected and maintained in ice; from tissue; host or cells: rat brain (cerebellum excluded), membrane preparation
T1 sequence (P20272 whole entry): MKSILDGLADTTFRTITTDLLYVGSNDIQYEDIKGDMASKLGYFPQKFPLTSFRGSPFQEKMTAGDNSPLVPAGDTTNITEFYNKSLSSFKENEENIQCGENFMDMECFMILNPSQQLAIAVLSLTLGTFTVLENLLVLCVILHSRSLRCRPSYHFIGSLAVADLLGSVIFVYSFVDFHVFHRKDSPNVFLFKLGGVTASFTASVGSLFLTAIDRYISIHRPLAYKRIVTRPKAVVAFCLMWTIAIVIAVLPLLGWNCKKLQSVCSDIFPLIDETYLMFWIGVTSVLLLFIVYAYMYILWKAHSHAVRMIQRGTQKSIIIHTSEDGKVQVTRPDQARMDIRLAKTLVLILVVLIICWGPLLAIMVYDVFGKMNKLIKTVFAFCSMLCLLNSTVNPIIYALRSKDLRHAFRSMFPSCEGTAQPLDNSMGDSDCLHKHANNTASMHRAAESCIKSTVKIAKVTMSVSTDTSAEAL
Method: (§1) The affinity of the synthesized compounds towards the cannabinoidergic CB1 and CB2 receptors was evaluated in vitro through radioreceptorial binding studies by utilizing the following method.
(§2) The receptorial binding technique allows indeed to establish if and with what affinity and specificity a determined compound binds itself to a particular receptor. To evaluate the possible affinity of a determined compound towards a particular receptor it is necessary to make to compete (in a particular preparation of the tissue in which those determined receptors are present) the compound to be tested with another compound whose affinity is known and whose molecule was rendered radioactive. […] The reading of the radioactivity present in the receptor-compound complex allows furthermore to calculate with extreme precision the amount of compound bound to the receptor. […] By repeating the same experimental scheme it is possible to evaluate the affinity of the compound towards other kinds of receptors and establish then the specificity degree.
(§3) Food and water were available ad libitum.
(§4) The animals were sacrificed by cervical dislocation, the brain in toto (cerebellum excluded) and the spleen were rapidly dissected and maintained in ice.
(§5) The tissue was homogenized in 15 volumes (weight/volume) of TME buffer (50 mM Tris, 1 mM EDTA e 3 mM MgCl2, pH 7.4) by an Ultra-Turrax and centrifuged for 10 minutes at 1086×g in a centrifuge cooled at 4° C. The resulting supernatant was centrifuged at 45,000×g for 30 min at 4° C. by using a Beckman SW41 rotor and the final pellet was resuspended in 50 volumes of TME.
(§6) The obtained membranes (50-80 μg of proteins) were incubated in the presence of 1 nM di[^3H]-CP55,940 for 1 h at 30° C. in a final volume of 0.5 ml of TME buffer containing 5 mg/ml of bovine serum albumin (BSA). The non specific binding was measured in the presence of CP55,940 at the 1 μM concentration.
(§7) All the experiments were carried out in polypropylene test tubes pretreated with Sigma-Cote (Sigma Chemical Co. Ltd., Poole, UK) to reduce the non specific binding.
(§8) For the building of the competitive inhibition binding curves eight different concentrations of each compound were used.
(§9) Incubation was interrupted by addition of TME buffer (at 4° C.) containing 5 mg/ml of BSA and filtration under vacuum through Whatman GFC filters pretreated with 0.5% of polyethylamine (PEI) and by using a filtering apparatus (Brandell, Gaithersburg, Md., USA). Filters were washed 3 times with 5 ml of Tris HCl buffer (pH 7.4, 4° C.) containing 1 mg/ml of BSA and singly placed in plastic vials containing 4 ml of scintillating liquid (Ultima Gold MV, Packard).
(§10) The radioactivity present in the filters was measured by a scintillator spectrophotometer (Tricarb 2100, Packard, Meridien, USA).
(§11) The protein determination was carried out by the Bradford method by using the protocol and the reactants supplied by Bio-Rad (Milano, Italia).
(§12) The affinity of the compounds towards the CB1 and CB2 receptors was expressed in Ki terms.

[2] = biological target: T2, cannabinoidergic CB2 receptors (Rattus norvegicus, UniProt Q9QZN9); test: Radioreceptorial binding, [3H]-CP-55,940 competition, rat spleen membranes
T2 construct: the brain in toto (cerebellum excluded) and the spleen were rapidly dissected and maintained in ice; from tissue; host or cells: rat spleen, membrane preparation
T2 sequence (Q9QZN9 1-360): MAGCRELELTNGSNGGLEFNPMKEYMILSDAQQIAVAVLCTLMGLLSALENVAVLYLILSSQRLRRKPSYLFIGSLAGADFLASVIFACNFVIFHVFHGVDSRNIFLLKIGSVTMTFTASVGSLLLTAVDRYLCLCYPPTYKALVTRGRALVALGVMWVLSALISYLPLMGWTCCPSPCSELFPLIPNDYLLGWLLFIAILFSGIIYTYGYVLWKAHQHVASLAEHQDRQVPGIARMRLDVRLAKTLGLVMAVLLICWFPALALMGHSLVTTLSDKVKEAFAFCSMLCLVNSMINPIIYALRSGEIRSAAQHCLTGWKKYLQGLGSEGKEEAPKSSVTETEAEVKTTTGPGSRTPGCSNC
Method: as §1, §2, §3, §4, §5, §6, §7, §8, §9, §10, §11, §12

rat = conditions: concluded from the hypothermia tests
Method: The rectal temperature in the rat was determined by an electronic thermometer inserted at a 2 mm depth. The measurements were carried out on rats acclimated for one hour. […]
Each test was repeated on ten animals; the reported results are the average of the results obtained with the ten animals.

rat intestinal motility [3] = test: Intestinal motility, Upper Gut Transit Test, compound alone; type: in vivo; conditions: control 50%
Method: (§13) To evaluate the activity in vivo of the compounds (I) object of the present invention, functional tests were carried out directed to the evaluation of the effect of said compounds on the rat intestinal motility. It was indeed shown the involvement of the cannabinoidergic CB1 receptors in the intestinal motility regulation in rat (R. G. Pertwee et al; Br. J. Pharmacol.; 1996, 118, 2199-2205). In particular, the CB1 receptor agonists slacken the gastrointestinal motility; antagonist compounds of the same receptors have instead a prokinetic effect on the gastrointestinal transit (G. Colombo et al.; Eur. J. Pharmacol.; 1998, 344, 67-69; M. A. Casu et al.; Eur. J. Pharmacol.; 2003, 459, 97-105).
(§14) The evaluation of the constipating or prokinetic effect of the compounds was carried out by the Upper Gut Transit Test method on the basis of the procedure defined and ratified by Y. Nagakura et al.; Eur. J. Pharmacol.; 1996, 311, 67-72. The method, which allows to measure the motility of the stomach and of the first intestine tract (small or little intestine), requires: • the administration of the compound to be tested by i.p. route; • the administration of carmine red (marker not directly absorbable from the stomach) by intragastric route through a metal probe, after 20 minutes from the administration of the compound to be tested; • the rat sacrifice by cervical dislocation after a pre-fixed time (30 minutes) starting from the administration time; • the intestine explant from pylorus to the ileo-cecal valve; • the determination of the intestinal part crossed by the marker; • the data processing to determine the percentage of crossed part with respect to the total length of the small intestine.
With respect to the control (physiological solution or carrier wherein the compounds to be tested were solubilized or dispersed), the administration of CB1 agonist compounds implies an intestinal transit percentage reduction; an opposite effect is noticed in case of antagonist compounds. The latter are therefore capable to cancel the constipating effect of CB1 agonist compounds.
Each test was repeated on ten animals; the results reported in the Examples are the average of the results obtained with ten animals.

rat intestinal motility [4] = test: Intestinal motility, Upper Gut Transit Test, antagonism of the constipating action of WIN 55,212-2; type: in vivo; conditions: WIN alone 25%
Method: as §13, §14
With respect to the control (physiological solution or carrier wherein the compounds to be tested were solubilized or dispersed), the administration of CB1 agonist compounds implies an intestinal transit percentage reduction; an opposite effect is noticed in case of antagonist compounds. The latter are therefore capable to cancel the constipating effect of CB1 agonist compounds. […]

Row | SMILES | Ki ([1]; rat brain membranes, 1 nM [3H]-CP55,940, read-out: CB1 (brain) Ki) | Ki ([2]; rat spleen membranes, 1 nM [3H]-CP55,940, read-out: CB2 (spleen) Ki) | passage of the hemato-encephalic barrier (rat) | intestinal portion run by the marker with respect to the total intestine length (rat intestinal motility [3]; compound 5 mg/kg i.p.) | intestinal portion run by the marker with respect to the total intestine length (rat intestinal motility [4]; compound 1.5 mg/kg before WIN 55,212-2 0.5 mg/kg) | melting point | Ki [1] | Ki [2] | intestinal portion run by the marker with respect to the total intestine length (rat intestinal motility [3]; compound 1 mg/kg i.p.) | intestinal portion run by the marker with respect to the total intestine length (rat intestinal motility [4]; compound 0.3 mg/kg before WIN 55,212-2 0.5 mg/kg)
1 | O=C(NN1CCCC1)c1nn(-c2ccc(Cl)cc2Cl)c2c1CCc1sc(Cl)cc1-2 [Example 3.5, N-pyrrolidinyl-7-chloro-1-(2′,4′-dichlorophenyl)-4,5-dihydro-1H-thieno[2,3-g]indazol-3-carboxamide] | 137 ± 12 nM | 243 ± 14 nM | not able to pass the hemato-encephalic barrier | 67% | 50% | 228 °C |  |  |  | 
2 | O=C(NN1CCCCCC1)c1nn(-c2ccc(Cl)cc2Cl)c2c1CCc1sc(Cl)cc1-2 [Example 3.6, N-homopiperidinyl-7-chloro-1-(2′,4′-dichlorophenyl)-4,5-dihydro-1H-thieno[2,3-g]indazol-3-carboxamide] |  |  | unable to pass the hemato-encephalic barrier; also recorded: not capable to pass the hemato-encephalic barrier | 75% |  | 181 to 182 °C | 9.83 ± 0.72 nM | 20.8 ± 1.4 nM | 65% | 50%

Source: US8106218B2, “Pharmaceutical compounds” (Neuroscienze Pharmaness S.C. A R.L., priority 2004, dated 2012)
